System: GM-CSF-producing CD4-positive memory T-cells
Assay: GM-CSF-producing CD4-positive memory T-cells in PBMCs of normal subjects after single oral dose (FACS)
Type: in vivo, human
Procedure: A single dose of compound 31, which is a synthetic glycolipid of the present invention, described in the first aspect, i.e., (2S,3S,4R)-1-O-(α-D-galactosyl)-2-(N-tetracosanoylamino)-1,3,4-nonanetriol represented by the following formula (III), was orally administered to each of subjects of 4 cohorts (A, B, C, and D cohorts) each consisting of 3 normal subjects shown in Table 1 above after obtainment of informed consent.
The dose was set to 0.3 mg per person for A cohort, 1 mg per person for B cohort, 3 mg per person for C cohort, and 10 mg per person for D cohort.
Subsequently, T-cell subfractions were prepared from the peripheral blood of each subject by using the density gradient centrifugation method. First, a total of 20 mL of blood was collected from the vein of each subject 24 hours (1st day), 48 hours (2nd day), 72 hours (3rd day), and 168 hours (7th day) after the administration of compound 31 by using two 10-mL heparin sodium-containing vacuum blood collection tubes. For a control, 20 mL of blood was similarly collected from the vein of each subject one day before the administration of compound 31.
Next, 4 mL of Ficoll-Paque Plus (GE Healthcare Biosciences Corp.) was placed in each of four 15-mL conical tubes, and 10 mL of blood diluted twice with phosphate buffered saline (PBS) was gently layered thereon. Then, density gradient centrifugation was performed by centrifugation at 1800 rpm at ordinary temperature for 30 minutes. After the centrifugation, a supernatant containing plasma and platelet was discarded, and lymphocytes present at the boundary layer between the supernatant layer and the Ficoll-Paque Plus layer were recovered into a fresh 50-mL conical tube. The 50-mL conical tube was filled by adding PBS thereto, followed by centrifugation at 1800 rpm at ordinary temperature for 5 minutes. […] After a supernatant was removed by suction again, a single cell suspension was prepared by adding 1 mL of AIM-V medium (Life Technologies Corp.), and then, the number of cells was measured with a counting chamber. […]

SMILES: CCCCCCCCCCCCCCCCCCCCCCCC(=O)NC(COC1OC(CO)C(O)C(O)C1O)[C@H](O)C(O)CCCCC (stereo in doubt) [compound 31, (2S,3S,4R)-1-O-(α-D-galactosyl)-2-(N-tetracosanoylamino)-1,3,4-nonanetriol]
- suppressive effects on CD4-positive memory T-cells (A cohort, 0.3 mg single oral (low dose)): high suppressive effects
- growth of GM-CSF-producing CD4-positive memory T-cells (C and D cohorts (3 mg, 10 mg), 1 day after administration, transient): promoted
- proportion of GM-CSF-producing CD4-positive memory T-cells in PBMCs (single oral dose, all cohorts (0.3, 1, 3, 10 mg), after administration vs pre-administration value (day-1)): decreased

Reference: US12447167B2, “GM-CSF-producing t-cell control agent and Th1/Th2 immune balance regulator” (National Center of Neurology and Psychiatry, priority 2014, dated 2025)
